Our source for the Ki and EC50 values is patent publication US5726177A, “Indole-derived arylpiperazines as ligands for 5HT1 -like, 5HT1B and 5HT1D receptors” (Pierre Fabre Medicament, priority 1993, dated 1998).

Structures are written as SMILES. Structures can show the parent of a compound that is named as a salt. Where two headings read alike, the source gives them in different places.

The target of test [1] is T1, human 5HT1Db receptor (Homo sapiens, UniProt P28222). Kind of test: Binding to cloned human 5HT1Db receptor. As to the method: (§1) Human 5HT1Da and 5HT1Db receptors were cloned according to the sequences published by M. Hamblin and M. Metcalf, Mol. Pharmacol., 40, 143 (1991) and Weinshenk et al., Proc. Natl. Acad. Sci., 89, 3630 (1992).
(§2) The transient transfection and the stable transfection of the genes of these receptors was carried out in Cos-7 and CHO-K1 cell lines by using an electroporator.
(§3) The binding of the derivatives of the present invention with human 5HT1Da, 5HT1Db and 5HT1A receptors was studied according to the method described by P. Pauwels and C. Palmier (Neuropharmacology, 33, 67, 1994).
(§4) The incubation media for these binding measurements comprise 0.4 ml of cell membrane preparation, 0.05 ml of a tritiated ligand [[3H]-SCT (final concentration: 2 nM) for the 5HT1Da and 5HT1Db receptors and [3H]-80H-DPAT (final concentration: 1 nM) for the 5HT1A receptor] and 0.05 ml of the molecule to be tested (final concentrations from 0.1 nM to 1000 nM) or 10 μM (final concentration) of serotonin (5HT1Da and 5HT1Db) or 1 μM (final concentration) of spiroxatrin (5HT1A ).

The target in another test is T2, human 5HT1A receptor (Homo sapiens, UniProt P08908).
T2 sequence (P08908 1-422): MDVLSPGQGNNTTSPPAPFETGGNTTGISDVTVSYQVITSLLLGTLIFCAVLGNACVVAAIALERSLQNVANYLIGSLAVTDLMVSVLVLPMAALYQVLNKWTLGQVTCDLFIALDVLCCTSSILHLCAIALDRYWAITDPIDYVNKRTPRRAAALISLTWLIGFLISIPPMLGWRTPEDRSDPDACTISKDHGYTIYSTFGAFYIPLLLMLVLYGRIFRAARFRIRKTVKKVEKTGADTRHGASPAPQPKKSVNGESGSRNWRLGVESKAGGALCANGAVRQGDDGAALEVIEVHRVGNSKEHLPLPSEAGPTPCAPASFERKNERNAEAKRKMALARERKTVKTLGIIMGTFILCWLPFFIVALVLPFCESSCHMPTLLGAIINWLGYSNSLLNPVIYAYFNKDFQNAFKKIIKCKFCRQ
Briefly: Binding to human 5HT1A receptor (HeLa HA7 cell line). As to the method: The HeLa HA7 cell line expressing the 5HT1A human receptor was obtained from Tulco (Duke Univ., Durham, N.C., USA) and cultured according to the method of Fargin et al., J. Biol. Chem., 264, 14848 (1989).
as §3, §4

Another test concerns the target human 5HT1Da receptor (Homo sapiens, UniProt P28221). Kind of test: Binding to cloned human 5HT1Da receptor. The protocol:
as §1, §2, §3, §4

In test [2] the target is T1, human 5HT1Db receptor. Briefly: cell-based. As to the method: as §1, §2
The inhibition of the formation of cyclic AMP (stimulated by forskolin) mediated by the human 5HT1Db receptor was studied in CHO-K1 cells transfected by the receptor according to the technique described previously for the 5HT1B receptor (P. Pauwels and C. Palmier, Neuropharmacology, 33, 67, 1994).

Where [3] appears, read: human cloned receptor, [3H] ligand 2 nM, read-out: Ki 5HT1Db.
Where [4] appears, read: HeLa HA7 cells, [3H]-DPAT ligand 1 nM, read-out: Ki 5HT1A.
Setting [5] is: human cloned receptor, [3H] ligand 2 nM, read-out: Ki 5HT1Da.
Where [6] appears, read: human 5HT1Db, CHO-K1 cells, read-out: EC50 (Inhibition of the 5HT1Db cyclase stimulated by forskolin).

T1 sequence (P28222 whole entry): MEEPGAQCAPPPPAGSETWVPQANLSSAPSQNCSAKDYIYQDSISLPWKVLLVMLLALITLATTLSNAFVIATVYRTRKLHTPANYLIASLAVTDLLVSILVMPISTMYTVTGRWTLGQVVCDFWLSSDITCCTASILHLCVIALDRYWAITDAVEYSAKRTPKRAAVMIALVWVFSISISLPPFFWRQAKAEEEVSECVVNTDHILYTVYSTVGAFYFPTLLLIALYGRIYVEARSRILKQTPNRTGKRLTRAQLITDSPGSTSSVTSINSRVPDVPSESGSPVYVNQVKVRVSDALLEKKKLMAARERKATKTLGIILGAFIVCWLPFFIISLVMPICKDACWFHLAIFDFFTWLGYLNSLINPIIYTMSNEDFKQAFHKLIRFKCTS
human 5HT1Da receptor, sequence (P28221 whole entry): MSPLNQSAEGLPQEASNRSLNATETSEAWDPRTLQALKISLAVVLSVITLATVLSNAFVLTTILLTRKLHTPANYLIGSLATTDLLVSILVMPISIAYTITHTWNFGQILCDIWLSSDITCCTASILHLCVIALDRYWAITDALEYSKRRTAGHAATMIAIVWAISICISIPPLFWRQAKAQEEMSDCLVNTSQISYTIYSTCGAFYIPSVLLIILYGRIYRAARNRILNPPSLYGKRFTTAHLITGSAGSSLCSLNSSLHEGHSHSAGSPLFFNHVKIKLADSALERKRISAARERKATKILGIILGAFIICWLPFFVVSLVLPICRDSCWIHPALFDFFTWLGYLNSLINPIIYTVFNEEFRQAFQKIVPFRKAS

The term Ki denotes the dissociation constant of the complex between target and ligand, obtained from inhibition or displacement. What is called EC50 is the concentration at which the effect is half-maximal. As to `NCCc1c[nH]c2ccc(OCC(=O)N3CCN(c4ccc(NS(=O)(=O)c5ccc([N+](=O)[O-])cc5)cc4)CC3)cc12` [Example 26, N-[4-(4-{2-[3-(2-Aminoethyl)-1H-indol-5-yloxy]acetyl}piperazin-1-yl)phenyl]-4-nitrophenylsulfonamide hydrochloride], the values for the Ki at human 5HT1Db receptor [1] (setting [3]), at human 5HT1A receptor (setting [4]) and at human 5HT1Da receptor (setting [5]) were 0.5 nM, 16.5 nM and 0.25 nM, respectively. Also, on human 5HT1Db receptor [2] (setting [6]), the EC50 is 6.5 nM.

As to `NCCc1c[nH]c2ccc(OCC(=O)N3CCN(c4ccc(NC(=O)Oc5ccccc5)cc4)CC3)cc12` [Example 33, N-[4-(4-{2-[3-(2-Aminoethyl)-1H-indol-5-yloxy]acetyl}-piperazin-1-yl)phenyl]phenylcarbamate], the inhibition constant Ki on human 5HT1Db receptor [1] is 2 nM; on human 5HT1A receptor, 39 nM; at human 5HT1Da receptor it was 2.8 nM. For the same compound, the EC50 at human 5HT1Db receptor [2] is 9 nM.

On to `CS(=O)(=O)Nc1ccc(N2CCN(CCOc3ccc4[nH]cc(CCN)c4c3)CC2)cc1` [Example 41, N-[4-(4-{2-[3-(2-Aminoethyl)-1H-indol-5-yloxy]ethyl}piperazin-1-yl)phenyl]methanesulfonamide hydrochloride], for which the Ki is 0.7 nM on human 5HT1Db receptor [1] (setting [3]), 28 nM on human 5HT1A receptor (setting [4]) and 1.1 nM on human 5HT1Da receptor (setting [5]). Further, the EC50 at human 5HT1Db receptor [2] (setting [6]) worked out at 2.6 nM.
